Assay results published in ChEMBL document CHEMBL6153155, “Novel Cyclohexyl Amido Acid Antagonists of Lysophosphatidic Acid Type 1 Receptor for the Treatment of Pulmonary Fibrosis” (ACS Med Chem Lett, 2025).

Columns and labels:
[1] = Lipophilicity, logD of compound at pH 7.4 by chromatographic hydrophobicity index method; type: physicochemical; settings: buffer
[2] = Half life in female C57BL/6J mouse at 2 mg/kg, iv measured after 24 hrs by UPLC-MS/MS analysis; type: ADME, organism-based; settings: in vivo
Bile salt export pump = Bile salt export pump (Homo sapiens, UniProt O95342); test: Inhibition of BSEP in cryopreserved sandwich-cultured human hepatocytes by measuring reduction in TCA biliary clearance using taurocholic acid as substrate; type: cell-based, Hepatocyte
[3] = Metabolic stability in human liver microsomes assessed as intrinsic clearance measured per mg of protein at 0.5 uM measured upto 45 mins in presence of NADPH regenerating system by HPLC-MS/MS analysis; type: ADME, Microsome; settings: read-out: CLH
[4] = Unbound AUClast in female C57BL/6J mouse plasma at 30 mg/kg, po measured after 24 hrs by UPLC-MS/MS analysis; type: ADME, organism-based; settings: in vivo
[5] = biological target: Lysophosphatidic acid receptor 4 (Homo sapiens, UniProt Q99677); test: Antagonist activity at human LPA4 expressed in CHO cells in presence of IBMX pretreated for 30 mins followed by LPA addition and measured after 1 hrs by cAMP accumulation assay; type: functional, cell-based
[6] = Total AUClast in female C57BL/6J mouse lung at 30 mg/kg, po measured after 24 hrs by UPLC-MS/MS analysis; type: ADME, organism-based; settings: in vivo
[7] = biological target: ATP-binding cassette sub-family C member 2 (Homo sapiens, UniProt Q92887); test: Inhibition of MRP2 (unknown origin) in presence of ATP by membrane vesicular transport assay; type: cell membranes, Membrane vesicle
[8] = Unbound Cmax in female C57BL/6J mouse plasma at 30 mg/kg, po measured after 24 hrs by UPLC-MS/MS analysis; type: ADME, organism-based; settings: in vivo
[9] = Volume of distribution at steady state in female C57BL/6J mouse at 2 mg/kg, iv measured after 24 hrs by UPLC-MS/MS analysis; type: ADME, organism-based; settings: in vivo, read-out: Vdss
[10] = Oral bioavailability in female C57BL/6J mouse at 2 mg/kg, iv measured after 24 hrs by UPLC-MS/MS analysis; type: ADME, organism-based; settings: in vivo
[11] = biological target: ATP-binding cassette sub-family C member 3 (Homo sapiens, UniProt O15438); test: Inhibition of MRP3 (unknown origin) in presence of ATP by membrane vesicular transport assay; type: cell membranes, Membrane vesicle
[12] = Drug uptake in mouse lung at 30 mg/kg, po measured upto 24 hrs; type: ADME, organism-based; settings: in vivo
[13] = Total AUClast in female C57BL/6J mouse plasma at 30 mg/kg, po measured after 24 hrs by UPLC-MS/MS analysis; type: ADME, organism-based; settings: in vivo
[14] = Total Cmax in female C57BL/6J mouse lung at 30 mg/kg, po measured after 24 hrs by UPLC-MS/MS analysis; type: ADME, organism-based
[15] = biological target: T1, Lysophosphatidic acid receptor 3 (Homo sapiens, UniProt Q9UBY5); test: Antagonist activity at human LPA3 expressed in human HeLa cells incubated for 30 mins by FLIPR-based calcium mobilization assay; type: functional, cell-based
T1 sequence (Q9UBY5 whole entry): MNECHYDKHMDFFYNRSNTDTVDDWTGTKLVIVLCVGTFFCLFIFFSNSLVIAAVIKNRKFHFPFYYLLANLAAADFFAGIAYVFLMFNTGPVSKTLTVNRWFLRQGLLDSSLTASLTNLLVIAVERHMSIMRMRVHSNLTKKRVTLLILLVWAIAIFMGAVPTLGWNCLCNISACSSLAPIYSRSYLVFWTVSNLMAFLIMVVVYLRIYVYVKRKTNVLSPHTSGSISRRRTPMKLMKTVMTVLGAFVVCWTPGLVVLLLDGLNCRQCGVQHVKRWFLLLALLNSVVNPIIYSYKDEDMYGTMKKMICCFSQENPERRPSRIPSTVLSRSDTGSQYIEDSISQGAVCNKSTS

[16] = Unbound Cmax in female C57BL/6J mouse lung at 30 mg/kg, po measured after 24 hrs by UPLC-MS/MS analysis; type: ADME, organism-based; settings: in vivo
[17] = biological target: T2, ATP-binding cassette sub-family C member 4 (Homo sapiens, UniProt O15439); test: Inhibition of MRP4 (unknown origin) in presence of ATP by membrane vesicular transport assay; type: cell membranes, Membrane vesicle
T2 sequence (O15439 whole entry): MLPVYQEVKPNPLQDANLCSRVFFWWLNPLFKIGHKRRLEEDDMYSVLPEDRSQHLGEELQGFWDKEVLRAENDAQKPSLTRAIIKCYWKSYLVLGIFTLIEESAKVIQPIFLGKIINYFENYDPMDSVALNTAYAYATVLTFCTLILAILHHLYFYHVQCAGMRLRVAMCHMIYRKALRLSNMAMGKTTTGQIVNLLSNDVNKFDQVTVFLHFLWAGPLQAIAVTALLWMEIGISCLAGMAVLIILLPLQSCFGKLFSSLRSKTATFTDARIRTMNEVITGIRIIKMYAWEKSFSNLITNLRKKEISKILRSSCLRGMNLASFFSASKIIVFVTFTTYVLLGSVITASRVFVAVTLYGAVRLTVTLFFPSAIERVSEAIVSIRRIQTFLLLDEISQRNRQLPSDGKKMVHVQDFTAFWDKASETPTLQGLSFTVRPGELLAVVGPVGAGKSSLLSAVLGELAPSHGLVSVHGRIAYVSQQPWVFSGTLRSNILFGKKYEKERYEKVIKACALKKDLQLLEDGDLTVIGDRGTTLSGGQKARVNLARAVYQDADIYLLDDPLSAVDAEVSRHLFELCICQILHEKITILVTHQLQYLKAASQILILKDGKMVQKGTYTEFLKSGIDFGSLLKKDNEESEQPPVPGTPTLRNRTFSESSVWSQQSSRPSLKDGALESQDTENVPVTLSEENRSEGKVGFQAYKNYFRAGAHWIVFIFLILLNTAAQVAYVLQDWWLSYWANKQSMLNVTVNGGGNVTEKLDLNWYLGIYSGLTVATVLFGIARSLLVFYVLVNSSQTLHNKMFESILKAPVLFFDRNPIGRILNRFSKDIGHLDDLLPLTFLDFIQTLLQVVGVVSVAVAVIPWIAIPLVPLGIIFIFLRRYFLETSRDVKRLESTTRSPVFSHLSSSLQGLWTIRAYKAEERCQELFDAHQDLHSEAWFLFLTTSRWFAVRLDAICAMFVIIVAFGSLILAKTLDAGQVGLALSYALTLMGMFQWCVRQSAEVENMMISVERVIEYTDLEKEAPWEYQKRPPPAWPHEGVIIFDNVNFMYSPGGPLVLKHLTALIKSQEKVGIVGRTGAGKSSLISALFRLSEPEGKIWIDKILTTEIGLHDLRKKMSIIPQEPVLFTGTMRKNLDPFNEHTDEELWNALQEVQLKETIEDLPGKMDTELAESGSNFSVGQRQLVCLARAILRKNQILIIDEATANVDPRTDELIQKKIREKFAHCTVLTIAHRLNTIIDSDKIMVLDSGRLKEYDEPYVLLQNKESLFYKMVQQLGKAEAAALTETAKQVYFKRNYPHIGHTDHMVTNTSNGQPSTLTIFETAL

Chain of Bile salt export pump (O95342 whole entry): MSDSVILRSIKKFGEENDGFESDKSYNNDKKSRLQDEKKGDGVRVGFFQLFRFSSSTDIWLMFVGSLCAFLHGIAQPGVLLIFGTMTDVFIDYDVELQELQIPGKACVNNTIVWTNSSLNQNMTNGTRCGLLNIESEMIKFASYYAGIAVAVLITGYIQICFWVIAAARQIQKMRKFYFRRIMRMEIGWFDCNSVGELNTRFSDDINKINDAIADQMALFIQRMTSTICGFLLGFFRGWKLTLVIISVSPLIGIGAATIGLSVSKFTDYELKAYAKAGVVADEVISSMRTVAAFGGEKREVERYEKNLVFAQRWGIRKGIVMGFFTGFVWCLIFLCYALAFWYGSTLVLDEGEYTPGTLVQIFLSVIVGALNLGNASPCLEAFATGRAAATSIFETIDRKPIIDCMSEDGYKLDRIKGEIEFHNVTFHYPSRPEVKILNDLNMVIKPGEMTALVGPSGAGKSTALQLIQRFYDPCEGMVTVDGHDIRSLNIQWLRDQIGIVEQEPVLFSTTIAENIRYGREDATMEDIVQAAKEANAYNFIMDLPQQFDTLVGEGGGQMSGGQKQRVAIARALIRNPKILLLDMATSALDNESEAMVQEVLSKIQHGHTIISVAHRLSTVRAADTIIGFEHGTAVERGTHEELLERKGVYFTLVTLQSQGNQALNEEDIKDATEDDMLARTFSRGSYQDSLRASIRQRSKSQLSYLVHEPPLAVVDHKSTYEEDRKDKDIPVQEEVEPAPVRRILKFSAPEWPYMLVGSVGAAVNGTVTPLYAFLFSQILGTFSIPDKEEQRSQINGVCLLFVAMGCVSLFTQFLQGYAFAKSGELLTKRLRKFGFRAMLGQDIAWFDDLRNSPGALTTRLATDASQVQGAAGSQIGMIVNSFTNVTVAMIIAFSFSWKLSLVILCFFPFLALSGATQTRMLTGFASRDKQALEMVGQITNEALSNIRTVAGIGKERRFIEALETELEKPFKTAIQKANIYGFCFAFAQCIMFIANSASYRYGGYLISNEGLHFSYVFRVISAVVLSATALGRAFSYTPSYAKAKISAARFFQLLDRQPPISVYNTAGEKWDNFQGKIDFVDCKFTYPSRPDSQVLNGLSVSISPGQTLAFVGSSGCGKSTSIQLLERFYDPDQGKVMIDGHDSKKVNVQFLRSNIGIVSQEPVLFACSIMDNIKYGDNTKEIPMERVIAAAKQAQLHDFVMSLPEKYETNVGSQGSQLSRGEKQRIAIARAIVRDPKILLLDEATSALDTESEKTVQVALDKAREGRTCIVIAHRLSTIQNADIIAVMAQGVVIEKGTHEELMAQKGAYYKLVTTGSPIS
Chain of Lysophosphatidic acid receptor 4 (Q99677 whole entry): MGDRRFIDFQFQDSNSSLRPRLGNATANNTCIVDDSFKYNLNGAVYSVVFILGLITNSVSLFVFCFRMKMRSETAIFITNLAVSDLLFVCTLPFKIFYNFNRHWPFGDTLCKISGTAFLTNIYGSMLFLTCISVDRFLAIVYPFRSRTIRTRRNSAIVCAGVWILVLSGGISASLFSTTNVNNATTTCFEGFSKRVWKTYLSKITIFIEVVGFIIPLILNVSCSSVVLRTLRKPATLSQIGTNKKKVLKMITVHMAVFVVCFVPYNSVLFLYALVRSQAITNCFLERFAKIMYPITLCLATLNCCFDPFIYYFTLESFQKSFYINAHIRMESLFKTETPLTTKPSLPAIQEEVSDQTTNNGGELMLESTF
Chain of ATP-binding cassette sub-family C member 3 (O15438 whole entry): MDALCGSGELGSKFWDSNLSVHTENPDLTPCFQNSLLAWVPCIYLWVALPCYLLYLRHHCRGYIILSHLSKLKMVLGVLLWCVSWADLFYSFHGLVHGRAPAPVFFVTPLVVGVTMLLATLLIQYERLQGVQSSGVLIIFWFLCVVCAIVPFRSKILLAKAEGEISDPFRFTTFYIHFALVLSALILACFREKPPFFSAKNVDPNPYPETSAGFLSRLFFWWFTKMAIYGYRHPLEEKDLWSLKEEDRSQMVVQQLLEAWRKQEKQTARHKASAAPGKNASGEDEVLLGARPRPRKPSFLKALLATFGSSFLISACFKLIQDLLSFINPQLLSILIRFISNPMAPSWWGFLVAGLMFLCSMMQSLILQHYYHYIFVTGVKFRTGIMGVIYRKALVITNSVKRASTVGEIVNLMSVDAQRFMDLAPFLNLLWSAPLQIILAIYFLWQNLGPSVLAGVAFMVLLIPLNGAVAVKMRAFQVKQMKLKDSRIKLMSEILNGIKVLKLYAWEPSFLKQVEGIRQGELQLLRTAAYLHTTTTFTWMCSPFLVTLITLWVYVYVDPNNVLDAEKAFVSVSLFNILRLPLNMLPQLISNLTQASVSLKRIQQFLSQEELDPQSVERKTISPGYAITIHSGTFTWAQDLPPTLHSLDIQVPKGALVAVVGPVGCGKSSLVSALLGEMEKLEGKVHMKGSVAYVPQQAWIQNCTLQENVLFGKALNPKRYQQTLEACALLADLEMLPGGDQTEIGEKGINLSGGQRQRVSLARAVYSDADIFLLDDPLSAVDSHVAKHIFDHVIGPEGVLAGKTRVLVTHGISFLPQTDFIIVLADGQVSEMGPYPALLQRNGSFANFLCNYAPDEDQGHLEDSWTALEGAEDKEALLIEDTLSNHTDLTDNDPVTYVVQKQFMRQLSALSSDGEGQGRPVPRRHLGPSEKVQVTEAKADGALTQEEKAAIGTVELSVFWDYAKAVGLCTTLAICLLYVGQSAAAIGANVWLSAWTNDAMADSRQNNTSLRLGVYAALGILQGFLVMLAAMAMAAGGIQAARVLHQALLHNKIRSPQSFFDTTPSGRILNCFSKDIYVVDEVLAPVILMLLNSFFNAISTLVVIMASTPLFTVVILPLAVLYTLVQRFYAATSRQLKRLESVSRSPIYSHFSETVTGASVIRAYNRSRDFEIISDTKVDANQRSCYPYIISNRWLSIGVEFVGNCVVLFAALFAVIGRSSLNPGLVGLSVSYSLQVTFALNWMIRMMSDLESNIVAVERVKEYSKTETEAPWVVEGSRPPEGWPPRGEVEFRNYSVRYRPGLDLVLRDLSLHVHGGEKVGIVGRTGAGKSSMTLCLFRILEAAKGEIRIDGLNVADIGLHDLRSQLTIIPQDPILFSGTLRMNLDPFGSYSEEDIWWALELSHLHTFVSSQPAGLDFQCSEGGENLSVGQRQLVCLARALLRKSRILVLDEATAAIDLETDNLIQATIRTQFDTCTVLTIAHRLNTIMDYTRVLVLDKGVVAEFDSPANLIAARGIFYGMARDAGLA
Chain of ATP-binding cassette sub-family C member 2 (Q92887 whole entry): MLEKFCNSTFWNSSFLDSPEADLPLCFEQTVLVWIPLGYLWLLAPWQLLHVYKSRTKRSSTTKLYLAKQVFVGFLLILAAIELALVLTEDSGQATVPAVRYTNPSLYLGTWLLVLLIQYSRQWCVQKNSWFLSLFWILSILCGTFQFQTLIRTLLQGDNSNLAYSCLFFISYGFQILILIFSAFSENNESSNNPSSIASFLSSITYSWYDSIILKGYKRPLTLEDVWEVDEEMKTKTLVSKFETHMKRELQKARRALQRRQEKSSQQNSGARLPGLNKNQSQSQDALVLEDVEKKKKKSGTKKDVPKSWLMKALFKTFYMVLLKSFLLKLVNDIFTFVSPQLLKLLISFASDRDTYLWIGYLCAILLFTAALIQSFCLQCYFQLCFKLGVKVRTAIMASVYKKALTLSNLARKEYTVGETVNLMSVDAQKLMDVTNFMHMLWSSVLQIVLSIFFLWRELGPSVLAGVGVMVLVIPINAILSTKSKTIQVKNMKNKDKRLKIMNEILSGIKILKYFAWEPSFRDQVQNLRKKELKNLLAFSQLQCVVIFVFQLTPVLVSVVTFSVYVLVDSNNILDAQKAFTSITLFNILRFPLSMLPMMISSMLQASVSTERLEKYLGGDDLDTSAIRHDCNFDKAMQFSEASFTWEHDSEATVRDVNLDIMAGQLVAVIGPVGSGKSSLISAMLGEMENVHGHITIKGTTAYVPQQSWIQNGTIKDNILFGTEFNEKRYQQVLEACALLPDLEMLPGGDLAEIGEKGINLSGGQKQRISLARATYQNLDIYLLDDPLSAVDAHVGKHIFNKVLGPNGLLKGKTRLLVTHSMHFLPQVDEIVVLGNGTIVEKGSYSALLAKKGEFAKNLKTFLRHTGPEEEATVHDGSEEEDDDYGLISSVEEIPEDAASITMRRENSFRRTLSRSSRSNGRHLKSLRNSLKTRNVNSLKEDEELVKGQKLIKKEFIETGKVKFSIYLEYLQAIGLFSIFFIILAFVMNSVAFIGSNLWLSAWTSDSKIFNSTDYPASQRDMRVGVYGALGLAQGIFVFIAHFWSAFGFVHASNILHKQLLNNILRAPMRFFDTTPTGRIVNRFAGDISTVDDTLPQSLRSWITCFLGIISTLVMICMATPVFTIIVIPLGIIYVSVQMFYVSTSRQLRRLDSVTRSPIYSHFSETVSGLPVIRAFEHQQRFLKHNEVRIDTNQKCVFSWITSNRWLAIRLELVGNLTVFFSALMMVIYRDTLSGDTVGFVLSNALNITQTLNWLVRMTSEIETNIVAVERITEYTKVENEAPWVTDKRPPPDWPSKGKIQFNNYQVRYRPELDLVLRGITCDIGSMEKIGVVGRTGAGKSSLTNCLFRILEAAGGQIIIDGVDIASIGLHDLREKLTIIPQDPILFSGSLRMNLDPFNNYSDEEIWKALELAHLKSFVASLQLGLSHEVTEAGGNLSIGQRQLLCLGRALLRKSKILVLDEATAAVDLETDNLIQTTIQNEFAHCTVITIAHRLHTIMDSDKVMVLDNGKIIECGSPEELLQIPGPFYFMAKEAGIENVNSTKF

chromatographic logD [1]: 1.76 | half-life [2]: 1.84 h | microsomal CLint at 0.5 µM [3]: 7 µL/min/mg | fAUClast [4]: 3675 h/ng/mL | IC50 [5]: 12.6 µM | AUClast [6]: 123000 h/ng/mL | IC50 [7]: > 200 µM | fCmax [8]: 1479 ng/mL | Vd [9]: 0.16 L/kg | bioavailability [10]: 100% | IC50 [11]: 25.1 µM | Drug uptake [12]: Active | AUClast [13]: 247000 h/ng/mL | Cmax [14]: 41300 ng/mL | IC50 [15]: 37.2 µM | fCmax [16]: 1553 ng/mL | IC50 [17]: 63.1 µM
SMILES: Cc1nc(-c2onc(C)c2NC(=O)O[C@H](C)c2ccccc2Cl)ccc1NC(=O)[C@H]1CCCC[C@@H]1C(=O)O
IC50 (Bile salt export pump): 39.8 µM
